Laboratory results: patent publication US20240309360A1, “TRANS-ACTIVATORS AND METHODS AND USE THEREOF” (THE GOVERNING COUNCIL OF THE UNIVERSITY OF TORONTO, priority 2021, published 2024)

Experiments:
[1] = tested on: EGFP reporter (7×TetO array, basal CMV promoter) in HEK293T reporter cell line; test: TAD-seq pooled activation screen of 60-aa fragments fused to PYL1; type: cell-based, human; details: for Hit high GFP: high GFP population (top 1%); for logFC high GFP / logFC medium GFP: log 2 fold change of counts, 100 μM ABA 48 hours; for logFC high GFP: sorted high GFP cells (top 1%) vs unsorted cells; for logFC medium GFP: sorted medium GFP cells (top 2-5%) vs unsorted cells; for Hit medium GFP: medium GFP population (top 2-5%)
Excerpt: A fragment library of 75 activators identified in our screen was generated, using 60 amino-acid tiles every 20 aa such that every amino acid was represented by three different fragments (FIG. 3A). The pooled fragment library was fused to PYL1 and recruited to the same GFP reporter used in the original ORFeome screen (FIG. 3A). […] The GFP positive population was sorted into two independent replicates, and fragments in each population were quantified by sequencing. However, in contrast to the ORFeome screen, both high GFP cells (top 1%) and medium GFP cells (top 2-5%) were sorted to potentially identify transactivators of different strength.
Activation domain tiling library generation. A tiling library was generated from 75 proteins identified as activators in the ORFeome screen. Oligonucleotides containing a 5′ adapter […] (SEQ ID NO: 23) and a 3′ adapter […] (SEQ ID NO: 24) to generate a 5′ adapter ([…]) (SEQ ID NO: 11) and a 3′ adapter ([…]) (SEQ ID NO: 12) were synthesized as pooled libraries (Twist Biosciences). 6×50 μl PCR reactions were set up using NEBNext Ultra II Q5 master mix (New England Biolabs) with 5 nM oligos as template. PCR conditions were optimized to find the lowest cycle with a clean visible product at the expected 300 bp length. The thermocycling condition was an initial 30 s at 98° C., then 2 cycles of 98° C. for 10 s, 63° C. for 20 s, and 72° C. for 15 s, followed by 10 more cycles of 98° C. for 10 s and 72° C. for 30 s with a final extension at 72° C. for 5 min. Primers were designed to have Gateway compatible flanking sequences. The resulting libraries were gel extracted by QIAgen gel extraction kit after loading on a 2% TAE gel for 2 hrs at 60V and subsequently cloned into pDONR221 using 20 separate BP reactions in total of 5 μl reactions. The entry plasmid pool was transformed after an overnight reaction into DHSalpha competent E. coli and incubated overnight on LB agar plates containing kanamycin ([…]). Colonies were collected and plasmid DNA purified. 20 LR reactions were then set up as described in the previous section. Each reaction was transformed into NEB 10-beta chemically competent E. coli and grown on LB agar plates containing carbenicillin ([…]) overnight at 30° C. Colonies were counted to ensure >200-fold coverage at each step of cloning, pooled and maxiprepped.
Pooled activation screens. ORFeome and transactivation tiling libraries tagged at the C-terminus with PYL1 were packaged into lentiviral particles. A clonal EGFP reporter cell line stably co-expressing ABI-dCas9 and a gRNA targeting the promoter were transduced at low multiplicity of infection (MOI) with approximately 30% cell survival after puromycin (1 μg/mL) selection. Untransduced cells under the same condition were fully eliminated. Sufficient cells were transduced to maintain >500 fold coverage of the libraries. Recruitment was induced by treating cells with 100 μM abscisic acid (ABA, Sigma) for 48 hours. In parallel, a control batch of cells were treated with equal total volume of DMSO. Cells were then washed in PBS, treated with dissociation buffer (1 mM EDTA, 10 mM KCl, 150 mM NaCl, 5 mM sodium bicarbonate, 0.1% glucose) and resuspended in flow buffer (5 mM EDTA, 25 mM HEPES pH 7, 1% BSA, PBS). High GFP population for each library, top 1% for ORFeome and two bins of top 1% and the next 4% for the TAD screen, were sorted and their genomic DNA directly extracted using QIAmp DNA Blood Mini Kit (QIAGEN).
TAD sequencing. Performed nested PCR on the purified genomic DNA using primers targeting T7 promoter and PYL1 of the backbone vector in the first step creating a ˜470 bp product. Products of the first reaction were then pooled and amplified for an additional 10 steps using primers targeting outside the Gateway sites creating a ˜300 bp product. Libraries were quantified on Qubit dsDNA Broad Range kit and paired-end sequenced on an Illumina MIseq with a custom PAGE-purified R1 sequencing primer. […]

[2] = tested on: EGFP reporter (7×TetO array, basal CMV promoter) in HEK293T reporter cell line; test: Arrayed recruitment assay, PYL1 fusions individually recruited to reporter via ABI1-dCas9 with ABA; type: cell-based, human; design: key to independently validated as transactivating fragment: Fragments marked with * were independently validated; details: for independently validated as transactivating fragment: fragment fused to PYL1, arrayed format; for activation of the EGFP reporter when individually tested: PYL1 fusion, ABA 48 hours, flow cytometry
Excerpt: Treatment of cells with abscisic acid (ABA) induces an interaction between ABI1 and PYL1, thereby recruiting the potential transcriptional activator to a specific genomic locus defined by the guide RNA (gRNA). As a reporter, a HEK293T cell line that contains a stably integrated construct with a 7×TetO array and a basal CMV promoter driving the expression of EGFP was used (Gao et al., 2016). A monoclonal cell line that expresses ABI1-dCas9 and a single gRNA targeting TetO was generated by lentiviral infection.
Arrayed recruitment assays. Reporter cells stably co-expressing ABI-dCas9 and TetO gRNA were seeded either on 48-well or 96-well plates (Sarstedt) to reach 50-70% confluency on the day of transfection. 150 ng of each construct to be tested was transfected with polyethylenimine (PEI) at a ratio of 0.6 μl reagent. The day after transfection, recruitment was induced by treatment with ABA (100 μM). […] Inhibitors were dissolved in DMSO to a stock concentration of 10 mM. The final concentrations used were 100 nM for flavopiridol, 300 nM for JQ1, 1 μM for A-485, 2.5 μM for CX-4945 and 3 μM for AZ191. All inhibitors were a kind gift from the Structural Genomics Consortium (SGC). 48 hours after induction, cells were dissociated and resuspended in flow buffer using a liquid handing robot (TECAN) and analyzed by LSR Fortessa (BD). Cells were gated on high EBFP2 and RFP as a measure of gRNA and transfection control, respectively. Flow cytometry data was analyzed using FlowJo (v10).

Row | Substance | Hit high GFP [1] | logFC high GFP [1] | logFC medium GFP [1] | Hit medium GFP [1] | independently validated as transactivating fragment [2] | activation of the EGFP reporter when individually tested [2]
1 | ATF6-2: 60-aa TAD-seq fragment of ATF6 (HRLDEDWDSALFAELGYFTDTDELQLEAANETYENNFDNLDFDLDLVPWESDIWDINNQI; listed as Homo sapiens) | hit | 4.688 | 1.477 | hit | ATF6-2* | –
2 | ATXN7L3-1: 60-aa TAD-seq fragment of ATXN7L3 (MKMEEMSLSGLDNSKLEAIAQEIYADLVEDSCLGFCFEVHRAVKCGYFFLDDTDPDSMKD; listed as Homo sapiens) | hit | 1.638 | 1.684 | hit | 1* | –
3 | BRD8-25: 60-aa TAD-seq fragment of BRD8 (GEELDFETVGDIIAIIEDKVDDHPEVLDVAAVEAALSFCEENDDPQSLPGPWEHPIQQER; listed as Homo sapiens) | hit | 1.567 | 1.834 | hit | BRD8-25* | –
4 | C3orf62-12: 60-aa TAD-seq fragment of C3orf62 (QDSPFKEEAWALLMDKSPQKATDADPGSLKQAFDDHNIVETVLDLEEDYNVMTSFKYQIE; listed as Homo sapiens) [Fragment C3orf62-12] | hit | 6.493 | −0.6067 | – | 12* | –
5 | CBX2: CBX-C domain of CBX2 (SASPPSTGQNPSVSVQTSQDWKPTRSLIEHVFVTDVTANLITVTVKESPTSVGFFNLRHY; listed as Homo sapiens) | – | – | – | – | – | the most potent activator
6 | CBX8: CBX-C domain of CBX8 (RPSLIARIPVARILGDPEEESWSPSLTNLEKVVVTDVTSNFLTVTIKESNTDQGFFKEKR; listed as Homo sapiens) | – | – | – | – | – | activated the reporter weakly
7 | CITED1-8: 60-aa TAD-seq fragment of CITED1 (ESLSPSAGAQSPAIIDSDPVDEEVLMSLVVELGLDRANELPELWLGQNEFDFTADFPSSC; listed as Homo sapiens) | hit | 6.826 | −1.166 | – | 8* | –
8 | CITED2-12: 60-aa TAD-seq fragment of CITED2 (AMLPPNVIDTDFIDEEVLMSLVIEMGLDRIKELPELWLGQNEFDFMTDFVCKQQPSRVSC; listed as Homo sapiens) | hit | 6.148 | −0.9005 | – | 12* | –
9 | FAM90A1-20: 60-aa TAD-seq fragment of FAM90A1 (HPAASHDGAQPLRVLFRRLENGRWSSSLLTAPSFHSPEKPGAFLAQSPHVSEKSEGPCVR; listed as Homo sapiens) | hit | 3.017 | 1.616 | hit | 20* | –
10 | HOXB2: HOX family transcription factor tested as PYL1 fusion | – | – | – | – | – | characterized as activators
11 | KLF7-1: 60-aa TAD-seq fragment of KLF7 (MDVLASYSIFQELQLVHDTGYFSALPSLEETWQQTCLELERYLQTEPRRISETFGEDLDC; listed as Homo sapiens) | hit | 5.998 | 1.29 | hit | KLF7-1* | –
12 | SERTAD1-10: 60-aa TAD-seq fragment of SERTAD1 (IDTSMYDNELWAPASEGLKPGPEDGPGKEEAPELDEAELDYLMDVLVGTQALERPPGPGR; listed as Homo sapiens) | – | 0.2349 | 0.8385 | hit | – | –
13 | SERTAD2-11: 60-aa TAD-seq fragment of SERTAD2 (SEAGTQKLDGPQESRADDSKLMDSLPGNFEITTSTGFLTDLTLDDILFADIDTSMYDFDP; listed as Homo sapiens) | hit | 2.48 | 1.822 | hit | – | –
14 | SPDYE4-4: 60-aa TAD-seq fragment of SPDYE4 (SEEELEEELELERAPEPEDTWVVETLCGLKMKLKRKRASSVLPEHHEAFNRLLGDPVVQK; listed as Homo sapiens) | hit | 4.316 | 1.914 | hit | – | –
15 | SS18L2-2: 60-aa TAD-seq fragment of SS18L2 (QETIQRLLEENDQLIRCIVEYQNKGRGNECVQYQHVLHRNLIYLATIADASPTSTSKAME; listed as Homo sapiens) | – | 1.012 | 1.166 | hit | – | –
16 | YAF2-6: 60-aa TAD-seq fragment of YAF2 (EKKDKVEKEKSEKETTSKKNSHKKTRPRLKNVDRSSAQHLEVTVGDLTVIITDFKEKTKS; listed as Homo sapiens) | hit | 4.316 | 1.771 | hit | – | –
17 | YAF2: YAF2_RYBP domain of YAF2; same SEQ ID NO as YAF2-7 (SHKKTRPRLKNVDRSSAQHLEVTVGDLTVIITDFKEKTKSPPASSAASADQHSQSGSSSD; listed as Homo sapiens) | – | – | – | – | – | robustly activated the reporter
18 | ZXDC-13: 60-aa TAD-seq fragment of ZXDC (YLESGGSARTDYRAIQLAKEKKQRGAGSNAGASQSTQRKIKEGKMSPPHFHASQNSWLCG; listed as Homo sapiens) | hit | 2.377 | 1.734 | hit | – | –
19 | ZXDC-16: 60-aa TAD-seq fragment of ZXDC (SLVVPSGGRPGPAPAAGVQCGAQGVQVQLVQDDPSGEGVLPSARGPATFLPFLTVDLPVY; listed as Homo sapiens) | – | 0.4785 | 0.7293 | hit | – | –
20 | p300: known transcriptional activator p300 fused to PYL1 [reference compound] | – | – | – | – | – | robust induction of GFP
